# US4112097A, “Antihypertensive agents” (Abbott Laboratories, priority 1977, dated 1978)
# Counter-ions that a name gives are not always drawn.
# What was measured:
# physchem = conditions: water
# Experimental: The water in the filtrate was removed in vacuo and the residue weighed and found to be 16.7 mg.
# [1] = test system: spontaneously hypertensive (SH) rats; experiment: Antihypertensive effect (blood pressure and heart rate) in spontaneously hypertensive rats; type: in vivo, rat; conditions: for Percent Change BP (blood pressure) / Percent Change HR (heart rate): N=4, mean; for Percent Change (antihypertensive effect): individual values of 2 rats
# Experimental: The screening is conducted as follows:
# Male spontaneously hypertensive (SH) rats are trained to be restrained in a wire mesh cylinder in a warming box, at least two training cycles being conducted before testing. The rats are warmed for about 1/2 hour period to blood pressure measurement, the warming box being maintained at a constant temperature of 36° C.
# An occluding cuff attached to the programed sphymomanometer is placed near the base of the tail of each rat and the pressure in the cuff is increased automatically from 0 to 250 milimeters of mercury (mm Hg) at a rate of 10 mm Hg per second. The total time for each cycle of inflation and deflation of the cuff is 50 seconds and the interval between cycles is one minute.
# A photocell is placed distal to the cuff to record the pulses due to forward motion of blood flow with each heart beat. As the pressure in the cuff increases, the pulse disappears completely at a point where cuff pressure equals or exceeds the arterial blood pressure and it reappears during deflation at approximately the same pressure. Five interference free signals for deflation are recorded for each rat. Rats with a blood pressure of 180 mm Hg or more during the control period are used in the study. Blood pressure and heart rate readings are recorded on a model VII Grass polygraph at intervals of 1, 3, 5 and 24 hours after administration of the drug.
# [2] = intraperitoneal 0.3 mg/kg, 1 hour
# [3] = intraperitoneal 0.3 mg/kg, 3 hours
# [4] = intraperitoneal 0.3 mg/kg, 5 hours
# [5] = intraperitoneal 0.3 mg/kg, 24 hours
# [6] = intraperitoneal 1 mg/kg, 1 hour
# [7] = intraperitoneal 1 mg/kg, 3 hours
# [8] = intraperitoneal 1 mg/kg, 5 hours
# [9] = intraperitoneal 1 mg/kg, 24 hours
# [10] = intraperitoneal 3 mg/kg, 1 hour
# [11] = intraperitoneal 3 mg/kg, 3 hours
# [12] = intraperitoneal 3 mg/kg, 5 hours
# [13] = intraperitoneal 3 mg/kg, 24 hours
# [14] = intraperitoneal 10 mg/kg, 1 hour
# [15] = intraperitoneal 10 mg/kg, 3 hours
# [16] = intraperitoneal 10 mg/kg, 5 hours
# [17] = intraperitoneal 10 mg/kg, 24 hours
# [18] = intraperitoneal 30 mg/kg, 1 hour
# [19] = intraperitoneal 30 mg/kg, 3 hours
# [20] = intraperitoneal 30 mg/kg, 5 hours
# [21] = intraperitoneal 30 mg/kg, 24 hours
smiles,measurement,setting,value
"COc1cc2nc(N3CCN(C(=O)C4CCCCO4)CC3)nc(N)c2cc1OC (centres unmarked) [2-[4(Tetrahydropyran-2-Carbonyl)Piperazinyl]-4-Amino-6,7-Dimethoxyquinazoline Hydrochloride]",solubility,physchem,56.5 mg/mL
"COc1cc2nc(N3CCN(C(=O)C4CCCO4)CC3)nc(N)c2cc1OC (centres unmarked) [Formula II, 2[4(tetrahydro-2-furoyl)-piperazino]-4-amino-6,7-dimethoxyquinazoline]",antihypertensive effect in words,[1]; SH rats,potent antihypertensive agents which lower the blood pressure of spontaneously hypertensive rats
same,heart rate in words,[1]; SH rats,without causing any significant changes in heart rate
same,Percent Change BP (blood pressure),[1]; [2],-22.3%
same,Percent Change HR (heart rate),[1]; [2],20.0%
same,Percent Change BP (blood pressure),[1]; [3],-26.5%
same,Percent Change HR (heart rate),[1]; [3],10.3%
same,Percent Change BP (blood pressure),[1]; [4],-20.5%
same,Percent Change HR (heart rate),[1]; [4],14.3%
same,Percent Change BP (blood pressure),[1]; [5],2.5%
same,Percent Change HR (heart rate),[1]; [5],10.0%
same,Percent Change BP (blood pressure),[1]; [6],-26.5%
same,Percent Change HR (heart rate),[1]; [6],22.8%
same,Percent Change BP (blood pressure),[1]; [7],-27.5%
same,Percent Change HR (heart rate),[1]; [7],2.8%
same,Percent Change BP (blood pressure),[1]; [8],-17.0%
same,Percent Change HR (heart rate),[1]; [8],11.5%
same,Percent Change BP (blood pressure),[1]; [9],3.8%
same,Percent Change HR (heart rate),[1]; [9],-9.5%
same,Percent Change BP (blood pressure),[1]; [10],-45.3%
same,Percent Change HR (heart rate),[1]; [10],7.8%
same,Percent Change BP (blood pressure),[1]; [11],-39.0%
same,Percent Change HR (heart rate),[1]; [11],-1.5%
same,Percent Change BP (blood pressure),[1]; [12],-40.0%
same,Percent Change HR (heart rate),[1]; [12],3.0%
same,Percent Change BP (blood pressure),[1]; [13],-2.3%
same,Percent Change HR (heart rate),[1]; [13],-0.5%
same,Percent Change BP (blood pressure),[1]; [14],-49.8%
same,Percent Change HR (heart rate),[1]; [14],9.0%
same,Percent Change BP (blood pressure),[1]; [15],-41.5%
same,Percent Change HR (heart rate),[1]; [15],24.5%
same,Percent Change BP (blood pressure),[1]; [16],-41.8%
same,Percent Change HR (heart rate),[1]; [16],34.5%
same,Percent Change BP (blood pressure),[1]; [17],-7.5%
same,Percent Change HR (heart rate),[1]; [17],14.0%
same,Percent Change BP (blood pressure),[1]; [18],-59.5%
same,Percent Change HR (heart rate),[1]; [18],-9.0%
same,Percent Change BP (blood pressure),[1]; [19],-42.3%
same,Percent Change HR (heart rate),[1]; [19],1.8%
same,Percent Change BP (blood pressure),[1]; [20],-44.5%
same,Percent Change HR (heart rate),[1]; [20],5.3%
same,Percent Change BP (blood pressure),[1]; [21],-22.3%
same,Percent Change HR (heart rate),[1]; [21],5.8%
same,Percent Change BP (blood pressure),"[1]; oral 0.03 mg/kg, 1 hour",-5.3%
same,Percent Change HR (heart rate),"[1]; oral 0.03 mg/kg, 1 hour",-4.3%
same,Percent Change BP (blood pressure),"[1]; oral 0.03 mg/kg, 3 hours",-1.8%
same,Percent Change HR (heart rate),"[1]; oral 0.03 mg/kg, 3 hours",-8.5%
same,Percent Change BP (blood pressure),"[1]; oral 0.03 mg/kg, 5 hours",-9.3%
same,Percent Change HR (heart rate),"[1]; oral 0.03 mg/kg, 5 hours",-14.5%
same,Percent Change BP (blood pressure),"[1]; oral 0.03 mg/kg, 24 hours",-3.3%
same,Percent Change HR (heart rate),"[1]; oral 0.03 mg/kg, 24 hours",-8.8%
same,Percent Change BP (blood pressure),"[1]; oral 0.1 mg/kg, 1 hour",3.8%
same,Percent Change HR (heart rate),"[1]; oral 0.1 mg/kg, 1 hour",3.0%
same,Percent Change BP (blood pressure),"[1]; oral 0.1 mg/kg, 3 hours",1.8%
same,Percent Change HR (heart rate),"[1]; oral 0.1 mg/kg, 3 hours",4.8%
same,Percent Change BP (blood pressure),"[1]; oral 0.1 mg/kg, 5 hours",-7.3%
same,Percent Change HR (heart rate),"[1]; oral 0.1 mg/kg, 5 hours",-6.8%
same,Percent Change BP (blood pressure),"[1]; oral 0.1 mg/kg, 24 hours",-1.5%
same,Percent Change HR (heart rate),"[1]; oral 0.1 mg/kg, 24 hours",-0.3%
same,Percent Change BP (blood pressure),"[1]; oral 0.3 mg/kg, 1 hour",-15.8%
same,Percent Change HR (heart rate),"[1]; oral 0.3 mg/kg, 1 hour",-1.0%
same,Percent Change BP (blood pressure),"[1]; oral 0.3 mg/kg, 3 hours",-22.8%
same,Percent Change HR (heart rate),"[1]; oral 0.3 mg/kg, 3 hours",-2.8%
same,Percent Change BP (blood pressure),"[1]; oral 0.3 mg/kg, 5 hours",-21.3%
same,Percent Change HR (heart rate),"[1]; oral 0.3 mg/kg, 5 hours",-2.8%
same,Percent Change BP (blood pressure),"[1]; oral 0.3 mg/kg, 24 hours",2.0%
same,Percent Change HR (heart rate),"[1]; oral 0.3 mg/kg, 24 hours",10.5%
same,Percent Change BP (blood pressure),"[1]; oral 1 mg/kg, 1 hour",-15.8%
same,Percent Change HR (heart rate),"[1]; oral 1 mg/kg, 1 hour",-9.0%
same,Percent Change BP (blood pressure),"[1]; oral 1 mg/kg, 3 hours",-17.3%
same,Percent Change HR (heart rate),"[1]; oral 1 mg/kg, 3 hours",-9.3%
same,Percent Change BP (blood pressure),"[1]; oral 1 mg/kg, 5 hours",-22.5%
same,Percent Change HR (heart rate),"[1]; oral 1 mg/kg, 5 hours",-8.5%
same,Percent Change BP (blood pressure),"[1]; oral 1 mg/kg, 24 hours",3.5%
same,Percent Change HR (heart rate),"[1]; oral 1 mg/kg, 24 hours",-4.5%
same,Percent Change BP (blood pressure),"[1]; oral 3 mg/kg, 1 hour",-29.0%
same,Percent Change HR (heart rate),"[1]; oral 3 mg/kg, 1 hour",-9.3%
same,Percent Change BP (blood pressure),"[1]; oral 3 mg/kg, 3 hours",-33.3%
same,Percent Change HR (heart rate),"[1]; oral 3 mg/kg, 3 hours",-11.0%
same,Percent Change BP (blood pressure),"[1]; oral 3 mg/kg, 5 hours",-31.5%
same,Percent Change HR (heart rate),"[1]; oral 3 mg/kg, 5 hours",-11.0%
same,Percent Change BP (blood pressure),"[1]; oral 3 mg/kg, 24 hours",-12.3%
same,Percent Change HR (heart rate),"[1]; oral 3 mg/kg, 24 hours",-5.3%
same,Percent Change BP (blood pressure),"[1]; oral 10 mg/kg, 1 hour",-37.0%
same,Percent Change HR (heart rate),"[1]; oral 10 mg/kg, 1 hour",12.3%
same,Percent Change BP (blood pressure),"[1]; oral 10 mg/kg, 3 hours",-42.0%
same,Percent Change HR (heart rate),"[1]; oral 10 mg/kg, 3 hours",16.5%
same,Percent Change BP (blood pressure),"[1]; oral 10 mg/kg, 5 hours",-38.0%
same,Percent Change HR (heart rate),"[1]; oral 10 mg/kg, 5 hours",-10.3%
same,Percent Change BP (blood pressure),"[1]; oral 10 mg/kg, 24 hours",-12.0%
same,Percent Change HR (heart rate),"[1]; oral 10 mg/kg, 24 hours",1.5%
same,Percent Change BP (blood pressure),"[1]; oral 30 mg/kg, 1 hour",-30.0%
same,Percent Change HR (heart rate),"[1]; oral 30 mg/kg, 1 hour",-9.8%
same,Percent Change BP (blood pressure),"[1]; oral 30 mg/kg, 3 hours",-23.8%
same,Percent Change HR (heart rate),"[1]; oral 30 mg/kg, 3 hours",-8.8%
same,Percent Change BP (blood pressure),"[1]; oral 30 mg/kg, 5 hours",-26.0%
same,Percent Change HR (heart rate),"[1]; oral 30 mg/kg, 5 hours",-15.5%
same,Percent Change BP (blood pressure),"[1]; oral 30 mg/kg, 24 hours",-4.0%
same,Percent Change HR (heart rate),"[1]; oral 30 mg/kg, 24 hours",-8.0%
"COc1cc2nc(N3CCN(C(=O)C4CCCCO4)CC3)nc(N)c2cc1OC (centres unmarked) [Formula III, 2-[4(tetrahydropyran-2-carbonyl)piperazinyl]-4-amino-6,7-dimethoxyquinazoline]",Percent Change (antihypertensive effect),[1]; [18],-58%
same,Percent Change (antihypertensive effect),[1]; [19],-71%
same,Percent Change (antihypertensive effect),[1]; [20],-47%
same,Percent Change (antihypertensive effect),[1]; [21],-28%
same,Percent Change (antihypertensive effect),"[1]; oral 1 mg/kg, 1 hour, 1 mg/kg",-34%
same,Percent Change (antihypertensive effect),"[1]; oral 1 mg/kg, 3 hours, 1 mg/kg",-25%
same,Percent Change (antihypertensive effect),"[1]; oral 1 mg/kg, 5 hours, 1 mg/kg",-21%
same,Percent Change (antihypertensive effect),"[1]; oral 1 mg/kg, 24 hours, 1 mg/kg",-7%
